Read-outs that look alike come from different tables or passages of the source.
Target: T1, human recombinant DPP-IV enzyme (Homo sapiens, UniProt P27487)
T1 construct: purchased Cayman Chemical
Assay: DPP-IV inhibitor screening assay (Cayman kit, fluorogenic H-Gly-Pro-AMC substrate)
Format: biochemical
Conditions: for DPP-IV inhibitory effect (in words): isolates tested up to 100 μM
Experimental: Briefly, a DDP assay buffer consisting of 20 mM Tris-HCL (pH 8.0), […] and 1 mM EDTA was used for the assay solution. Each of the compounds were initially dissolved in DMSO at a concentration of 1 mM. Subsequently, the final concentration of compounds was diluted to 0.1, 1, 10, 25, 50 and 100 μM, respectively. The human recombinant DPP-IV enzyme and the substrate 5 mM H-Gly-Pro conjugated to aminomethylcoumarin (AMC) were put in the same buffer. Diluted assay buffer (30 μL) and diluted enzyme solution (10 μL) were added to a 96-well plate containing 10 μL of solvent (blank) or 10 μL of solvent-dissolved test compounds. The reaction by adding 50 μL of the diluted solution of the fluorogenic substrate was initiated and cleavage of the peptide bond by DPP released the free AMC group. The fluorescence was measured as an excitation wavelength of 350 nm and an emission wavelength of 450 nm using a plate reader (TECAN, Männedorf, Switzerland). The percentage inhibition was expressed as [(DPP-IV level of vehicle-treated control−DPP-IV level of test samples)/DPP-IV level of vehicle-treated control] × 100. Subsequently, the 50% inhibitory concentration (IC50) was determined using GraphPad Prism software (GaraphPad Software, La Jolla, CA, USA) via a dose–response analysis.

[1] = in vitro, compounds at 0.1-100 μM, values in text, read-out: IC50, inhibition of DPP-IV activity

T1 sequence (P27487 whole entry): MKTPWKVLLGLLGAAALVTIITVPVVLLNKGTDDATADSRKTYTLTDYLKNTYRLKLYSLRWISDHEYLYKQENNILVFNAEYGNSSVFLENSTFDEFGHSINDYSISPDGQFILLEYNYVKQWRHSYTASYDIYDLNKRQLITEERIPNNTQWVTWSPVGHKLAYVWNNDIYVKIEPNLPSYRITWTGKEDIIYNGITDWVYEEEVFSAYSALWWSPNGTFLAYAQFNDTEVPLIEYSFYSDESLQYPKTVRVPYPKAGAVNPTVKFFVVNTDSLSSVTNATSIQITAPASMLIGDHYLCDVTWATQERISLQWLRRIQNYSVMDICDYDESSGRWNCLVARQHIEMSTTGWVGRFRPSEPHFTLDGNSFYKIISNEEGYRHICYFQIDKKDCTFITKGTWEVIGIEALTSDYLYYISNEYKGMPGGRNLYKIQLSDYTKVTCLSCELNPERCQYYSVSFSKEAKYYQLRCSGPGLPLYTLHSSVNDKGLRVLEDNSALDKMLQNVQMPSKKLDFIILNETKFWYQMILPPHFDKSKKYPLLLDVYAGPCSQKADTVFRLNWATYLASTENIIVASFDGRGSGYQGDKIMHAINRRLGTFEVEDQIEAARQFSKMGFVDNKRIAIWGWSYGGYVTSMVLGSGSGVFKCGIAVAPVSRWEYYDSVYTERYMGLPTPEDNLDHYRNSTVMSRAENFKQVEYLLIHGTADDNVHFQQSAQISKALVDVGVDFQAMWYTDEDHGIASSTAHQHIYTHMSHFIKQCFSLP

Structure (SMILES) | DPP-IV inhibitory effect (in words) | IC50 (dose-response curves, mean ± SD of three independent experiments, read-out: IC50, effect on DPP-IV activity (Figure 3)) [µM] | IC50 [1] [µM]
CC#CC#CC#C/C=C/[C@@H](CCCCO)O[C@@H]1O[C@H](CO)[C@@H](O)[C@H](O)[C@H]1O [Compound 1, (5R)-6E-tetradecene-8,10,12-triyne-1-ol-5-O-β-glucoside] | did not show their activities | – | –
COc1c(O)ccc(C(=O)/C=C/c2ccc(O)c(O)c2)c1O [Compound 2, lanceoletin] | – | 9.55 | 9.6
COc1ccc(C=CC(=O)c2ccc(OC3OC(CO)C(O)C(O)C3O)c(OC)c2O)cc1O (stereo not shown) [Compound 3, 3,2′-dihydroxy-4-3′-dimethoxychalcone-4′-glucoside] | – | – | 14.3
COc1ccc(/C=C/C(=O)c2ccc(O)c(OC)c2O)cc1O [Compound 4] | – | – | 21.6
COc1c(O)ccc2c1O/C(=C\c1ccc(O)c(O)c1)C2=O [Compound 6, leptosidin] | moderate | – | 13.3
COc1c(O)ccc2c1O[C@@H](c1ccc(O)c(O)c1)CC2=O [Compound 7, (2R)-8-methoxybutin] | moderate | – | 64.9
O=c1cc(-c2ccc(O)c(O)c2)oc2cc(O)cc(O)c12 [Compound 8, luteolin] | did not show their activities | – | –
O=c1c(O)c(-c2ccc(O)c(O)c2)oc2cc(O)cc(O)c12 [Compound 9, quercetin] | did not show their activities | – | –
C/C=C/C#CC#CCCCO[C@@H]1O[C@H](CO)[C@@H](O)[C@H](O)[C@H]1O [Compound 10, bidenoside C] | did not show their activities | – | –
C=C[C@H](O)[C@H](/C=C/C#CC#CC#CC)O[C@@H]1O[C@H](CO)[C@@H](O)[C@H](O)[C@H]1O [Compound 11, (3S,4S)-5E-trideca-1,5-dien-7,9,11-triyne-3,4-diol-4-O-β-glucopyranoside] | did not show their activities | – | –
